US20100069366A1, “ANTIBACTERIAL QUINOLINE DERIVATIVES” (JANSSEN-CILAG, priority 2006, published 2010)
Converted amounts (≈) assume the structure as drawn. Where two headings read alike, the source gives them in different places.

Tests used:
Assay type in all cases: cell-based
M. Smegmatis ATCC607 = assay: In-vitro anti-bacterial activity against strain M. smegmatis ATCC607; details: for IC90: Mycolicibacterium smegmatis
Description: Flat-bottom, sterile 96-well plastic microtiter plates were filled with 180 μl of sterile deionized water, supplemented with 0.25% BSA. Subsequently, stock solutions (7.8× final test concentration) of compounds were added in 45 μl volumes to a series of duplicate wells in column 2 so as to allow evaluation of their effects on bacterial growth. Serial five-fold dilutions (45 μl in 180 μl) were made directly in the microtiter plates from column 2 to 11 using a customised robot system (Zymark Corp., Hopkinton, Mass.). Pipette tips were changed after every 3 dilutions to minimize pipetting errors with high hydrophobic compounds. Untreated control samples with (column 1) and without (column 12) inoculum were included in each microtiter plate. Approximately 250 CFU per well of bacteria inoculum, in a volume of 100 μl in 2.8× Mueller-Hinton broth medium, was added to the rows A to H, except column 12. The same volume of broth medium without inoculum was added to column 12 in row A to H. The cultures were incubated at 37° C. for 48 hours in a humidified 5% CO2 atmosphere (incubator with open air valve and continuous ventilation). At the end of incubation, two days after inoculation, the bacterial growth was quantitated fluorometrically. Therefore Alamar Blue (10×) was added to all wells in a volume of 20 μl and plates were incubated for another 2 hours at […]
The fluorescence was read in a computer-controlled fluorometer (Cytofluor, Biosearch) at an excitation wavelength of 530 nm and an emission wavelength of 590 nm (gain 30).

[1] = system: Streptococcus pyogens (ATCC8668); assay: Microtitre plate assay, IC90 determination, SPY 8668
Description: (§1) The bacteria used in this study were grown overnight in flasks containing 100 ml Mueller-Hinton Broth (Becton Dickinson—cat. no. 275730) in sterile de-ionized water, with shaking, at 37° C. Stocks (0.5 ml/tube) were stored at −70° C. until use. Bacteria titrations were performed in microtiter plates to detect the TCID50, in which the TCID50 represents the dilution that gives rise to bacterial growth in 50% of inoculated cultures.
(§2) In general, an inoculum level of approximately 100 TCID50 was used for susceptibility testing.
(§3) Flat-bottom, sterile 96-well plastic microtiter plates were filled with 180 μl of sterile deionized water, supplemented with 0.25% BSA. Subsequently, stock solutions (7.8× final test concentration) of compounds were added in 45 μl volumes in column 2 Serial five-fold dilutions (45 μl in […]) were made directly in the microtiter plates from column 2 to reach column 11. Untreated control samples with (column 1) and without (column 12) inoculum were included in each microtiter plate. Depending on the bacteria type, approximately 10 to 60 CFU per well of bacteria inoculum (100 TCID50), in a volume of 100 μl in 2.8× Mueller-Hinton broth medium, was added to the rows A to H, except column 12. The same volume of broth medium without inoculum was added to column 12 in row A to H. The cultures were incubated at 37° C. for 24 hours under a normal atmosphere (incubator with open air valve and continuous ventilation). At the end of incubation, one day after inoculation, the bacterial growth was quantitated fluorometrically. Therefore resazurin (0.6 mg/ml) was added in a volume of 20 μl to all wells 3 hours after inoculation, and the plates were re-incubated overnight. A change in colour from blue to pink indicated the growth of bacteria. The fluorescence was read in a computer-controlled fluorometer (Cytofluor Biosearch) at an excitation wavelength of 530 nm and an emission wavelength of 590 nm. The % growth inhibition achieved by the compounds was calculated according to standard methods.

[2] = system: Staphylococcus aureus (ATCC29213); assay: Microtitre plate assay, IC90 determination, STA 29213
Description: as §1, §2, §3

[3] = system: Streptococcus pneumoniae (ATCC6305); assay: Microtitre plate assay, IC90 determination, SPN 6305; details: 90% inhibitory concentration for bacterial growth, resazurin
Description: as §1, §2, §3

[4] = system: Pseudomonas aeruginosa (ATCC27853); assay: Microtitre plate assay, IC90 determination, PAE 27853
Description: as §1, §2, §3

[5] = system: Enterococcus faecalis (ATCC29212); assay: Microtitre plate assay, IC90 determination, EFA 29212
Description: as §1, §2, §3

[6] = 90% inhibitory concentration for bacterial growth, 48 hours, Alamar Blue fluorescence
[7] = Streptococcus pyogens ATCC8668, 90% inhibitory concentration for bacterial growth, resazurin
[8] = Staphylococcus aureus ATCC29213, 90% inhibitory concentration for bacterial growth, resazurin
[9] = Streptococcus pneumoniae ATCC6305
[10] = Pseudomonas aeruginosa ATCC27853, 90% inhibitory concentration for bacterial growth, resazurin
[11] = Enterococcus faecalis ATCC29212, 90% inhibitory concentration for bacterial growth, resazurin
[12] = ATCC607, 48 h, read-out: M. smegmatis IC90 (μg/ml), 90% inhibitory concentration for bacterial growth, Alamar Blue fluorescence
[13] = Streptococcus, ATCC8668, read-out: IC90 (μg/ml) SPY 8668
[14] = Staphylococcus aureus, ATCC29213, read-out: IC90 (μg/ml) STA 29213
[15] = Streptococcus pneumoniae, ATCC6305, read-out: IC90 (μg/ml) SPN 6305, Streptococcus pneumoniae ATCC6305
[16] = Pseudomonas aeruginosa, ATCC27853, read-out: IC90 (μg/ml) PAE 27853
[17] = ATCC607, 90% inhibitory concentration for bacterial growth, 48 hours, Alamar Blue fluorescence, read-out: M. smegmatis IC90
[18] = Staphylococcus aureus ATCC29213, 90% inhibitory concentration for bacterial growth, resazurin, read-out: IC90 (μg/ml) STA 29213
[19] = Streptococcus pneumoniae ATCC6305, read-out: IC90 (μg/ml) SPN 6305

SMILES	M. smegmatis IC90 (M. Smegmatis ATCC607; [6]) [µg/mL]	IC90 (μg/ml) STA 29213 [2, 8] [µg/mL]	IC90 (μg/ml) SPN 6305 [3, 9] [µg/mL]	IC90 (M. Smegmatis ATCC607; [12]) [µg/mL]	IC90 [2, 14] [µg/mL]	IC90 [3, 15] [µg/mL]	further results
COc1nc2ccc(-c3ccccc3)cc2cc1C(C(=CCN(C)C)c1cccc2ccccc12)c1ccccc1 (mixture of isomers) [Compound 32]	1.69	1.69	1.9				IC90 (μg/ml) SPY 8668 [1, 7]: 3.79 µg/mL; IC90 (μg/ml) PAE 27853 [4, 10]: 3.79 µg/mL; IC90 (μg/ml) EFA 29212 [5, 11]: 9.51 µg/mL
COc1nc2ccc(Br)cc2cc1C(=C(C)CCN(C)C)c1ccccc1 (mixture of isomers) [Compound 35]	3.79	33.79	1.35				IC90 (μg/ml) SPY 8668 [1, 7]: 1.35 µg/mL; IC90 (μg/ml) PAE 27853 [4, 10]: 15.09 µg/mL; IC90 (μg/ml) EFA 29212 [5, 11]: 15.09 µg/mL
COc1nc2ccc(Br)cc2cc1C(C(=CCN(C)C)c1cccc(F)c1)c1ccccc1 (racemic) [Compound 25]	40.15	22.58 (≈ 44.7 µM)	8.01 (≈ 15.8 µM)				IC90 (μg/ml) SPY 8668 [1, 7]: 17.93 µg/mL (≈ 35.5 µM); IC90 (μg/ml) PAE 27853 [4, 10]: 40.15 µg/mL (≈ 79.4 µM); IC90 (μg/ml) EFA 29212 [5, 11]: 40.15 µg/mL (≈ 79.4 µM)
COc1nc2ccc(C)cc2cc1C(C(=CCN(C)C)c1ccccc1)c1ccccc1 (racemic) [Compound 30]	2.67	6.7 (≈ 15.9 µM)	1.34 (≈ 3.17 µM)				IC90 (μg/ml) SPY 8668 [1, 7]: 6.7 µg/mL (≈ 15.9 µM); IC90 (μg/ml) PAE 27853 [4, 10]: 13.36 µg/mL (≈ 31.6 µM); IC90 (μg/ml) EFA 29212 [5, 11]: 11.91 µg/mL (≈ 28.2 µM)
CSc1nc2ccc(-c3ccccc3)cc2cc1C(=C(CCN(C)C)c1ccccc1)c1ccccc1 (single isomer, unassigned) [Compound 40]	1.58	19.93 (≈ 39.8 µM)	3.98 (≈ 7.95 µM)				IC90 (μg/ml) SPY 8668 [1, 7]: 7.94 µg/mL (≈ 15.9 µM); IC90 (μg/ml) EFA 29212 [5, 11]: 15.83 µg/mL (≈ 31.6 µM)
COc1nc2ccc(-c3ccccc3)cc2cc1C(/C(=C/CN(C)C)c1ccccc1)c1ccccc1 (stereo not shown) [Compound 11]				1.53 (≈ 3.16 µM)	1.53 (≈ 3.16 µM)	1.22 (≈ 2.52 µM)	IC90 [1, 13]: 7.68 µg/mL (≈ 15.8 µM); IC90 [4, 16]: 7.68 µg/mL (≈ 15.8 µM); IC90 ([5]; Enterococcus faecalis, ATCC29212, read-out: IC90 (μg/ml) EFA 29212): 15.3 µg/mL (≈ 31.6 µM)
COc1nc2ccc(Br)cc2cc1C(/C(C)=C/CN(C)C)c1ccccc1 (stereo not shown) [Compound 14]							IC90 (M. Smegmatis ATCC607; [17]): 1.35 µg/mL (≈ 3.17 µM); IC90 ([1]; Streptococcus pyogens ATCC8668, 90% inhibitory concentration for bacterial growth, resazurin, read-out: IC90 (μg/ml) SPY 8668): 26.8 µg/mL (≈ 63.1 µM); IC90 [2, 18]: 33.8 µg/mL (≈ 79.4 µM); IC90 [3, 19]: 1.35 µg/mL (≈ 3.17 µM); IC90 ([4]; Pseudomonas aeruginosa ATCC27853, 90% inhibitory concentration for bacterial growth, resazurin, read-out: IC90 (μg/ml) PAE 27853): 37.9 µg/mL (≈ 89.1 µM); IC90 ([5]; Enterococcus faecalis ATCC29212, 90% inhibitory concentration for bacterial growth, resazurin, read-out: IC90 (μg/ml) EFA 29212): 37.9 µg/mL (≈ 89.1 µM)
COc1nc2ccc(-c3ccco3)cc2cc1C(/C(=C/CN(C)C)c1cccc2ccccc12)c1ccccc1 (stereo not shown) [Compound 21]				14.8 (≈ 28.2 µM)	41.7 (≈ 79.4 µM)	23.4 (≈ 44.7 µM)	
COc1nc2ccc(-c3ccco3)cc2cc1/C(=C(/CCN(C)C)c1cccc2ccccc12)c1ccccc1 [Compound 22]				1.66 (≈ 3.16 µM)	20.9 (≈ 39.8 µM)	20.9 (≈ 39.8 µM)	
COc1nc2ccc(Br)cc2cc1C(/C(=C/C[N+](C)(C)C)c1cccc(F)c1)c1ccccc1 (stereo not shown) [Compound 23]				1.85	1.65	1.85	IC90 [1, 13]: 1.65 µg/mL; IC90 [4, 16]: 6.55 µg/mL
COc1nc2ccc(-c3cccnc3)cc2cc1C(=C(CCN(C)C)c1cccc2ccccc12)c1ccccc1 [Compound 41]	3.79	8.49 (≈ 15.8 µM)	9.53 (≈ 17.8 µM)				
COc1nc2ccc(-c3ccccc3)cc2cc1C(=C(CCn1ccnc1)c1ccccc1)c1ccccc1 [Compound 46]	1.61	9.03 (≈ 17.8 µM)	8.05 (≈ 15.9 µM)				
c1ccc(/C(CCCCN2CCCCC2)=C(/c2ccccc2)c2cnc3ccccc3c2)cc1 [Compound 49]				7.08 (≈ 15.9 µM)	44.7 (≈ 100 µM)	8.91 (≈ 19.9 µM)	
COc1ccc(/C(CCCCN2CCCCC2)=C(/c2ccccc2)c2cnc3ccccc3c2)cc1 [Compound 51]							IC90 (M. Smegmatis ATCC607; [17]): 7.55 µg/mL (≈ 15.8 µM); IC90 [2, 18]: 47.7 µg/mL (≈ 100 µM); IC90 [3, 19]: 21.3 µg/mL (≈ 44.7 µM)
Clc1ccc(/C(CCCCN2CCCCC2)=C(/c2ccc(Cl)cc2)c2cnc3ccccc3c2)cc1 [Compound 52]				1.63 (≈ 3.16 µM)	10.3 (≈ 20 µM)	10.3 (≈ 20 µM)	
COc1ccc(/C(CCCCN2CCCCC2)=C(/c2ccc(Cl)cc2)c2cnc3ccccc3c2)cc1 [Compound 53]							IC90 (M. Smegmatis ATCC607; [17]): 2.03 µg/mL (≈ 3.97 µM); IC90 [2, 18]: 9.09 µg/mL (≈ 17.8 µM); IC90 [3, 19]: 10.2 µg/mL (≈ 20 µM)
N#Cc1ccc(/C(=C(\CCCCN2CCCCC2)c2ccccc2)c2cnc3ccccc3c2)cc1 [Compound 54]				11.8 (≈ 25.1 µM)	42 (≈ 89.1 µM)	47.2 (≈ 100 µM)	
N#Cc1ccc(/C(=C(\CCCCN2CCCCC2)c2ccc(Cl)cc2)c2cnc3ccccc3c2)cc1 [Compound 55]				8.02 (≈ 15.8 µM)	8.02 (≈ 15.8 µM)	10.1 (≈ 20 µM)	
COc1ccc(/C(=C(\CCCCN2CCCCC2)c2ccc(Cl)cc2)c2cnc3ccccc3c2)cc1 [Compound 58]				8.1 (≈ 15.8 µM)	10.2 (≈ 20 µM)	12.8 (≈ 25.1 µM)	
COc1nc2ccc(Br)cc2cc1C(/C(=C/C#N)CCCCN1CC2CC1CN2Cc1ccccc1)c1ccccc1 (stereo not shown) [Compound 60]							IC90 (M. Smegmatis ATCC607; [17]): 1.97 µg/mL (≈ 3.17 µM); IC90 [2, 18]: 1.97 µg/mL (≈ 3.17 µM); IC90 [3, 19]: 2.48 µg/mL (≈ 3.99 µM)
CCN(C)CCC/C=C(\CCc1ccccc1)C(c1ccccc1)c1cc2cc(Br)ccc2nc1OC (stereo not shown) [Compound 61]							IC90 (M. Smegmatis ATCC607; [17]): 1.76 µg/mL (≈ 3.16 µM); IC90 [2, 18]: 1.76 µg/mL (≈ 3.16 µM); IC90 [3, 19]: 1.76 µg/mL (≈ 3.16 µM)
